{"source": "patent US5849696A", "about": "“Composition and method of treating hepatitis C” (The Board of Governors of Wayne State University, priority 1993, dated 1998)", "origin": "cited, not measured here", "key": {"HCV": {"system": "HCV", "conditions": "in vivo"}, "[1]": {"system": "natural killer-cell activity", "conditions": "THNα1 together with interferon, immunosuppressed mice"}, "[2]": {"system": "Woodchuck Hepatitis Virus", "conditions": "woodchuck infected with Woodchuck Hepatitis Virus"}, "hepatitis B virus (HBV)": {"system": "hepatitis B virus (HBV)", "conditions": "treated for a year"}, "[3]": {"system": "nonsmall cell lung cancer"}, "[4]": {"system": "chronic hepatitis C (NANB hepatitis)"}}, "note": "Where two headings read alike, the source gives them in different places. Where no end group is shown, it is not given here.", "data": [{"compound": "Nc1nc2c(ncn2COCCO)c(=O)[nH]1", "note": "[acyclovir]", "values": [{"measurement": "effect on HCV-related diseases", "setting": "HCV", "value": "ineffective"}]}, {"compound": "Thymosin α-1 (SDAAVDTSSEITTKDLKEKKEVVEEAEN; ends and bridges not checked; UniProt P06454 2-29, looked up) [THNα1]", "values": [{"measurement": "effect on natural killer-cell activity", "setting": "[1]", "value": "synergistic effect"}, {"measurement": "interleukin-2 receptor expression", "setting": "human lymphocytes", "value": "increase"}, {"measurement": "production of interferon-α, interferon-γ and interleukin-2", "setting": "human lymphocytes", "value": "promote production"}, {"measurement": "clinical or biochemical toxicity", "setting": "influenza vaccine; drug recipients", "value": "No clinical or biochemical toxicity was observed"}, {"measurement": "levels of antibody to influenza", "setting": "influenza vaccine; six weeks post-vaccine, subcutaneously twice weekly", "value": "higher levels of antibody to influenza than controls"}, {"measurement": "clinical parameters", "setting": "[2]", "value": "no improvement"}, {"measurement": "viral DNA replication", "setting": "[2]", "value": "suppressed viral DNA replication"}, {"measurement": "patients with reduced levels of serum HBV DNA", "setting": "hepatitis B virus (HBV); pooled THNα1 (5 patients) and TF-5 (2 patients)", "value": "6 of the 7"}, {"measurement": "patients initially positive for serum HBsAg who subsequently cleared this antigen", "setting": "hepatitis B virus (HBV); pooled THNα1 and TF-5 patients", "value": "5 of 6"}, {"measurement": "serum ALT", "setting": "hepatitis B virus (HBV); THNα1 (5 patients) or TF-5 (2 patients)", "value": "marked decrease"}, {"measurement": "immune function", "setting": "[3]; after radiotherapy", "value": "some restoration of radiation-suppressed immune function"}, {"measurement": "relapse-free survival and overall survival", "setting": "[3]; both THNα1 treatment groups versus placebo group", "value": "greater"}, {"measurement": "T-cell numbers", "setting": "[3]; human, in vivo", "value": "no increase"}]}, {"compound": "interferon α", "values": [{"measurement": "mean serum ALT and histological features of the liver", "setting": "chronic HCV infection; 2 MU subcutaneously three times weekly for six months", "value": "improved significantly"}, {"measurement": "complete response (decline in mean serum ALT to the normal range during therapy)", "setting": "chronic HCV infection; 2 MU subcutaneously three times weekly for six months, ten of twenty-one patients", "value": 48, "unit": "%"}, {"measurement": "further patients with decrease in mean ALT of more than 50%", "setting": "chronic HCV infection; 2 MU three times weekly for six months", "value": "three"}, {"measurement": "patients still with normal serum ALT values", "setting": "chronic HCV infection; six to twelve months after discontinuation of therapy, two patients", "value": 10, "unit": "%"}, {"measurement": "relapse within six months after the completion of treatment", "setting": "[4]; 1 MU", "value": 44, "unit": "%"}, {"measurement": "serum ALT response", "setting": "[4]; 1 MU three times weekly for 24 weeks, nine of sixteen patients", "value": 56, "unit": "%"}, {"measurement": "liver histology", "setting": "[4]; 3 MU", "value": "histologic improvement"}, {"measurement": "relapse within six months after the completion of treatment", "setting": "[4]; 3 MU", "value": 51, "unit": "%"}, {"measurement": "serum ALT level became completely normal", "setting": "[4]; 3 MU three times weekly for 24 weeks, 22 of the 26 patients who responded", "value": 85, "unit": "%"}, {"measurement": "mean serum ALT levels during the 24 week treatment period", "setting": "chronic NANB hepatitis; 1 MU three times a week", "value": "decreased"}, {"measurement": "proportion of patients with normal ALT levels", "setting": "chronic NANB hepatitis; at 24 weeks, 1 MU group", "value": 45, "unit": "%"}, {"measurement": "proportion of patients with normal ALT levels", "setting": "chronic NANB hepatitis; at 24 weeks, 3 MU group", "value": 39, "unit": "%"}, {"measurement": "proportion of patients with normal ALT levels", "setting": "chronic NANB hepatitis; at week 48, 1 MU group", "value": 20, "unit": "%"}, {"measurement": "proportion of patients with normal ALT levels", "setting": "chronic NANB hepatitis; at week 48, 3 MU group", "value": 28, "unit": "%"}, {"measurement": "repeat liver biopsy, severity of histological changes", "setting": "chronic NANB hepatitis; higher dose group (3 MU)", "value": "significant decrease in the severity of histological changes"}, {"measurement": "relapse in disease activity when interferon was stopped", "setting": "chronic NANB hepatitis; responders", "value": "approximately half of the responders"}]}]}
